Results taken from ChEMBL document CHEMBL1156520, “Inhibition of human dimethylarginine dimethylaminohydrolase-1 by S-nitroso-L-homocysteine and hydrogen peroxide. Analysis, quantification, and implications for hyperhomocysteinemia” (J Biol Chem, 2007).

Experiments:
[1] = target: N(G),N(G)-dimethylarginine dimethylaminohydrolase 1 (Homo sapiens, UniProt O94760); experiment: Inhibition of human recombinant DDAH1
[2] = Inhibition of recombinant N-glutathione transferase/human DDAH1 fusion protein

N(G),N(G)-dimethylarginine dimethylaminohydrolase 1, sequence (O94760 whole entry, the tested form may be a part): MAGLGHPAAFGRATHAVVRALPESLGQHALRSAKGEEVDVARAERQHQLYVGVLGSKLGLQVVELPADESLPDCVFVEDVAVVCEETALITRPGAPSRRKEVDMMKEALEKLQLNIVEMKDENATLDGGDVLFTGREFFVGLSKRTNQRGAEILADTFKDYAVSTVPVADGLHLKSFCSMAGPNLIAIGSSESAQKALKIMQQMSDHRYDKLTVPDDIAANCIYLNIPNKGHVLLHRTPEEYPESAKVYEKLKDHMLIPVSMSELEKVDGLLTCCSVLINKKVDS

For N[C@@H](CCS)C(=O)O [L-HOMOCYSTEINE], which IC50 [1] is on record?
The IC50 was 640 µM.

Which Ki [2] does the source give for NCCCC[C@H](N)C(=O)O [LYSINE] here?
Its Ki is 2800 µM.
